# Columns and labels:
# […] 1 (PYR1) = biological target: […] 1 (PYR1); set-up: method as in PMID 21847091; conditions: read-out: KD of PYR1 for ABA; cited from earlier work
# [1] = biological target: PYR1 in complex with co-receptor TYPE 2C PROTEIN PHOSPHATASE (PP2C); set-up: method as in PMID 21847091; conditions: cited from earlier work
# AtHTL = biological target: T1, AtHTL (Arabidopsis thaliana, UniProt Q9SZU7); conditions: cited from earlier work
# T1 sequence (Q9SZU7 1-270): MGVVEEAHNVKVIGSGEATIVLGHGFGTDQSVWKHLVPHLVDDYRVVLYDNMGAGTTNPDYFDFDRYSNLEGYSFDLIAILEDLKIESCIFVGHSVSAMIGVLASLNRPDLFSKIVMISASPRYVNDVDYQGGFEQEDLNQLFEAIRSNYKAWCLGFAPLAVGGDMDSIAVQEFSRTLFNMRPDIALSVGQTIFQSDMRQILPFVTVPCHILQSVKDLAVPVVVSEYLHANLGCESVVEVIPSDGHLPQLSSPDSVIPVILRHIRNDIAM
# ShD14 [2] = test: YLG hydrolysis assay, ShD14; assay type: biochemical, Striga hermonthica; conditions: fluorescence, repeated YLG hydrolysis assays
# Description: The YLG assays were conducted as previously described[28] with minor modifications. […] The fluorescence intensity was measured using a SpectraMax® iD5 Multi-Mode Microplate Reader (Molecular Devices). Measurements were performed at room temperature under a 480 nm excitation wavelength, a 530 nm emission wavelength, a manual PMT of 500, and a read height of 1.00 mm. The fluorescence can be detected if YLG is hydrolyzed. […] The experiment was repeated 6 times independently. page 4: Supplementary Figure 4. YLG hydrolysis assays of OsD14 and ShD14. RFU (relative fluorescence units) was calculated by dividing the fluorescence of OsD14. The fluorescence can be detected under a 490 nm excitation wavelength and a 520 nm emission wavelength if YLG is hydrolyzed. The experiments were repeated 4 (OsD14) or 6 times independently. Columns represent the mean RFU, and the error bars represent the standard deviation (S.D.). Each replicate is indicated by a black circle.
# ShD14 [3] = tested on: ShD14; set-up: method as in PMID 26293962; conditions: cited from earlier work
# ShD14 [4] = test: SL hydrolysis assay (HPLC), ShD14; assay type: biochemical, Striga hermonthica; conditions: 3.2 μM SL, 1.6 μM enzyme, 30 min, 30 °C
# Description: (§1) Next, 50 μL of 1 M HCl was added to each reaction solution, and the reaction solutions were extracted 3 times with 300 μL of ethyl acetate. The ethyl acetate layers were combined and dried in vacuo and were then dissolved in 50 μL of methanol. For each layer, 5 μL was applied to the reverse-phase HPLC (Shimadzu LC-2030C). The analytical column was a CAPCELL CORE C18 (Φ 2.1 × 100 mm, Shiseido). The analytes were eluted under gradient conditions at a flow rate of 0.20 mL min^−1 with a linear ramp of methanol to 90% methanol at 19 min, which was maintained for 6 min before resetting to the original conditions. […] The percentage of hydrolyzed SL was calculated and used for statistical analyses. One-tailed unpaired Student’s t-tests were used for comparison between buffer samples and enzyme samples.
# ShHTL7 [5] = biological target: T2, ShHTL7 (Striga hermonthica, UniProt A0A0M3PNA2); test: SL hydrolysis assay (HPLC), ShHTL7; assay type: biochemical; conditions: 3.2 μM SL, 1.6 μM enzyme, 30 min, 30 °C
# T2 sequence (A0A0M3PNA2 1-271): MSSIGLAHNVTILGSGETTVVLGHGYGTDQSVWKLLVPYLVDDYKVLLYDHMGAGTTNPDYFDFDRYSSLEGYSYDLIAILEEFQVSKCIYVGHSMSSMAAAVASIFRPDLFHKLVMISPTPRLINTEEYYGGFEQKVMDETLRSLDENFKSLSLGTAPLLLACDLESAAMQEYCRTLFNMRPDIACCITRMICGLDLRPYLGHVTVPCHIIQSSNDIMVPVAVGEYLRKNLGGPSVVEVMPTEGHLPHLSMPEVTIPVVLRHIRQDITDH
# Description: as §1
# ShHTL1 [6] = biological target: T3, ShHTL1 (Striga hermonthica, UniProt A0A0M4AV81); test: SL hydrolysis assay (HPLC), ShHTL1; assay type: biochemical; conditions: 3.2 μM SL, 1.6 μM enzyme, 30 min, 30 °C
# T3 sequence (A0A0M4AV81 entry or part of it): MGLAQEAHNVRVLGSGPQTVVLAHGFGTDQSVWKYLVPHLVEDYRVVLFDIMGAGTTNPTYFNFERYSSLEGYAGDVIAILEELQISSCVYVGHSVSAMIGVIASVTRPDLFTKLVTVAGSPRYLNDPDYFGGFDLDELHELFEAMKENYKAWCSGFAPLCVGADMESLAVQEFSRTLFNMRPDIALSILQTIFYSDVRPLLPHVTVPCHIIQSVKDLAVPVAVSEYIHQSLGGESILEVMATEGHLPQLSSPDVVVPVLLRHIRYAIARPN
# Description: as §1
# ShHTL4 = test: SL hydrolysis assay (HPLC), ShHTL4; assay type: biochemical, Striga hermonthica; conditions: 3.2 μM SL, 1.6 μM enzyme, 30 min, 30 °C
# Description: as §1
# ShD14–ShMAX2 interaction = test: Y2H assay ShD14-ShMAX2; assay type: cell-based, Striga hermonthica; conditions: 5 μM ligand
# Excerpt: (§2) Full-length sequences of ShD14, ShHTL1, ShHTL3, ShHTL4, ShHTL7, and AtHTL were cloned into the pGBKT7 vector as bait (Clontech), and the coding regions of ShMAX2 and AtMAX2 were cloned into the pGADT7 vector as prey (Clontech). MAX2 was supposed to be unstable without ASK1. Therefore, AtASK1 was cloned into the N terminus of ShMAX2 and AtMAX2 with a 16-residue linker for co-expression. The bait and prey plasmids were co-transformed into the yeast (Saccharomyces cerevisiae) strain Y2HGold (Clontech) by the lithium acetate-mediated method. The presence of both plasmids was confirmed by growth on SD/-Leu/-Trp (-LT) plates. […] The plates were incubated for 5 days at 30 °C.
# ShHTL7 T190F/C194F [7] = biological target: ShHTL7 T190F/C194F (Striga hermonthica, UniProt A0A0M3PNA2, C194F/T190F); test: YLG competition assay, ShHTL7 double mutation; assay type: biochemical
# Chain of ShHTL7 T190F/C194F (Striga hermonthica, UniProt A0A0M3PNA2, C194F/T190F) (A0A0M3PNA2 whole entry T190F/C194F): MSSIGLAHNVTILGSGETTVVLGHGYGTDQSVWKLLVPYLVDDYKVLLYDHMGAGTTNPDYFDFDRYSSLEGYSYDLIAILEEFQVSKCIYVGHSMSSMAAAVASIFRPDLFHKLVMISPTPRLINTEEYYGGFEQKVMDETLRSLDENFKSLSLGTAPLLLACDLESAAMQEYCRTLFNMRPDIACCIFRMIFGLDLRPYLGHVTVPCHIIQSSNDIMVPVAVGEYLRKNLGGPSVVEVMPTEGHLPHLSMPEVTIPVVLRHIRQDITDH
# Description: (§3) The YLG assays were conducted as previously described[28] with minor modifications. Ten microliters of 0.1 mg mL^−1 ShHTL7 protein in a reaction buffer containing 20 mM HEPES, pH 7.0, 150 mM NaCl and 80 μL of reaction buffer were mixed in a 96-well black plate (Grenier). Ten microliters of 10 μM YLG was added to the solution and incubated at 25 °C for 1 h prior to measurement. The fluorescence intensity was measured using a SpectraMax® iD5 Multi-Mode Microplate Reader (Molecular Devices). Measurements were performed at room temperature under a 480 nm excitation wavelength, a 530 nm emission wavelength, a manual PMT of 500, and a read height of 1.00 mm. The fluorescence can be detected if YLG is hydrolyzed. The RFU (relative fluorescence unit) was calculated by subtracting the fluorescence of the buffer (without protein) and then dividing by the fluorescence of wild-type ShHTL7. The experiment was repeated 6 times independently. […]
# (§4) in a previous study6, the enzymes were incubated with YLG at the indicated concentrations. The RFU (relative fluorescence units) was calculated by dividing the fluorescence of hydrolysis at 10 μM YLG by wild type (WT) ShHTL7 after subtracting the fluorescence of the buffer. The Km values were calculated from a Michaelis-Menten plot using GraphPad Prism software and are shown in the plots. (d) Competition assays with synthetic SL rac-GR24. WT and ShHTL7 protein […]
# (§5) The inhibition constant Ki was calculated according to the Cheng-Prusoff equation7. Kirac-GR24 values were 0.07 ± 0.01 μM for WT; 0.15 ± 0.04 μM for the T190F/C194F double mutation; and 11.85 ± 3.43 μM for the L124F/T190F/C194F triple mutation as shown in the plots. The experiment was repeated 4 times independently, and each replicate is represented by a black dot.
# (§6) The mean values are fitted, and the error bars represent the standard deviation (S.D.) of three replicates (means ± S.D., n=3).
# ShHTL7 T190F/C194F [8] = test: YLG competition assay, ShHTL7 double mutation; assay type: biochemical, Striga hermonthica; conditions: from Ki in YLG competition assays
# Description: as §3, §4, §5, §6
# ShHTL7 L124F/T190F/C194F = ShHTL7 L124F/T190F/C194F (Striga hermonthica, UniProt A0A0M3PNA2, C194F/L124F/T190F); test: YLG competition assay, ShHTL7 triple mutation; assay type: biochemical
# Chain of ShHTL7 L124F/T190F/C194F (A0A0M3PNA2 whole entry L124F/T190F/C194F): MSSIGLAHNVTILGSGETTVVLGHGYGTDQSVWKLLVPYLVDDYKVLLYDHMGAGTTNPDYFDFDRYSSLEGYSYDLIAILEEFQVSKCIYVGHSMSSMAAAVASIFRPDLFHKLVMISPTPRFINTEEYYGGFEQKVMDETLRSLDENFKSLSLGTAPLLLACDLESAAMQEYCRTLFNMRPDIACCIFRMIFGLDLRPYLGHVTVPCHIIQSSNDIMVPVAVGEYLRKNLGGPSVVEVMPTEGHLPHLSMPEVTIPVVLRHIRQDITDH
# Description: as §3, with “ShHTL7.” for “ShHTL7. The experiment was repeated 6 times independently.”
# (§7) in a previous study6, the enzymes were incubated with YLG at the indicated concentrations. The RFU (relative fluorescence units) was calculated by dividing the fluorescence of hydrolysis at 10 μM YLG by wild type (WT) ShHTL7 after subtracting the fluorescence of the buffer. The Km values were calculated from a Michaelis-Menten plot using GraphPad Prism software and are shown in the plots. […]
# (§8) The inhibition constant Ki was calculated according to the Cheng-Prusoff equation7. […]
# ShMAX2 and ShD14 = test: In vitro pull-down ShD14-ShMAX2; assay type: binding, Striga hermonthica; conditions: 50 μM ligand, CBB staining
# Description: (§9) Ni-NTA pull-down assays were performed with purified ShMAX2 or AtMAX2 as the bait and […]14, or GST-AtD14 as the prey. The molecular weight of the HTL/D14 proteins is nearly the same as that of ASK1; therefore, the HTL/D14 proteins were fused to GST, increasing their molecular weight for detection on SDS-PAGE gels. […] The protein complexes were then eluted with 100 μL of elution buffer containing 50 mM Bis-Tris, pH 6.8, 500 mM NaCl, and 500 mM imidazole and subjected to SDS-PAGE analysis.
# ShMAX2 and ShHTL4 = test: In vitro pull-down ShHTL4-ShMAX2; assay type: binding, Striga hermonthica; conditions: 50 μM ligand, CBB staining
# Description: as §9
# [9] = tested on: ShHTL7–ShMAX2 interaction; test: Y2H assay ShHTL7-ShMAX2; assay type: cell-based, Striga hermonthica; conditions: 5 μM ligand
# Excerpt: as §2
# ShHTL1 [10] = biological target: T3, ShHTL1; test: ITC binding to ShHTL1; conditions: 750 μM ShHTL1 into 100 μM rac-GR24, 20 °C
# Description: The binding assays were performed using a MicroCal iTC200 isothermal titration calorimeter (GE Healthcare). Prior to the ITC experiments, concentrated ShD14, ShHTL1, ShHTL4, and ShHTL7 were exchanged into a buffer consisting of 20 mM HEPES (pH 8.0) and 150 mM NaCl to remove dithiothreitol and were then adjusted to a final concentration of 150 μM. The sample cell was filled with protein solution (204 μL). Nineteen consecutive 2.0-μL aliquots of 3 mM KAR1 (3-methyl-2H-furo [2,3-c] pyran-2-one) were injected into a prepared protein solution at 150 s intervals at 20 °C. The first injection volume was 0.4 μL, and the observed thermal peak was excluded from the data analysis. A negative control was obtained by titrating 3 mM KAR1 into the buffer (20 mM HEPES, pH 8.0, 150 mM NaCl) in the same manner. Data fitting was performed in “one set of sites” mode, and KD values were calculated using Origin software provided by MicroCal.
# Binding analyses of ShHTLs and ShD14 with KAR1. The ITC assays were performed by adding 3 mM KAR1 to 150 μM ShHTL1 (a), ShHTL4 (b), ShHTL7
# (c), ShD14 (d) and AtHTL (e).
# ShHTL1 and AtHTL were fitted using the MicroCal origin software with the “one binding site” model.
# ShHTL7 [11] = biological target: T2, ShHTL7; test: YLG competition assay, WT ShHTL7; assay type: biochemical
# Description: as §3, with “ShHTL7.” for “ShHTL7. The experiment was repeated 6 times independently.”
# as §7, §8
# AtD14 = biological target: AtD14; set-up: method as in earlier work; conditions: read-out: Kd of rac-GR24 binding to AtD14; quoted in reviewer comment; cited from earlier work
# ShHTL3 [12] = test: SL hydrolysis assay (HPLC), ShHTL3; assay type: biochemical, Striga hermonthica; conditions: 3.2 μM SL, 1.6 μM enzyme, 30 min, 30 °C
# Description: as §1
# ShHTL3 [13] = tested on: ShHTL3; set-up: method as in PMID 27507097; conditions: cited from earlier work
smiles,measurement,setting,value
"CC1=CC(=O)CC(C)(C)[C@@]1(O)/C=C/C(C)=C\C(=O)O [ABA, abscisic acid]",Kd,[…] 1 (PYR1),97 µM
same,"binding affinities for ABA, PYR1-PP2C complex",[1],nanomolar range
"CCOC(=O)c1ccccc1-c1c2ccc(=O)cc-2oc2cc(OC3C=CC(=O)O3)ccc12 (stereo not drawn) [dYLG, desmethyl-YLG]",hydrolysis of dYLG by AtHTL,AtHTL,hydrolyze the synthesized desmethyl-YLG (dYLG)
"CCOC(=O)c1ccccc1-c1c2ccc(=O)cc-2oc2cc(OC3C=C(C)C(=O)O3)ccc12 (stereo not drawn) [YLG, Yoshimulactone Green]",hydrolysis of YLG by ShD14,ShD14 [2],not YLG
same,"hydrolytic activity of ShD14 toward YLG, previous study",ShD14 [3],no hydrolytic activity toward YLG
"CC1=CC(OC=C2C(=O)OC3C4=C(CCCC4(C)C)CC23)OC1=O (stereo not drawn) [5DS, 5-deoxystrigol]",hydrolytic activity of ShD14 toward SL,ShD14 [4],able to hydrolyze
same,hydrolytic activity of ShHTL7 toward SL,ShHTL7 [5],able to hydrolyze
same,hydrolytic activity of ShHTL1 toward SL,ShHTL1 [6],weak 5DS hydrolytic activity
same,hydrolytic activity of ShHTL4 toward SL,ShHTL4,able to hydrolyze
CC1=CC(O/C=C2/C(=O)OC3c4ccccc4CC23)OC1=O (racemic) [rac-GR24],ligand-induced ShD14-ShMAX2 interaction,ShD14–ShMAX2 interaction,rac-GR24-dependent ShD14–ShMAX2 interaction was also observed
same,IC50,ShHTL7 T190F/C194F [7],210 ± 50 nM
same,Ki,ShHTL7 T190F/C194F [7],150 ± 40 nM
same,"decrease in rac-GR24 binding affinity, T190F/C194F vs ShHTL7",ShHTL7 T190F/C194F [8],twofold decrease
same,IC50,ShHTL7 L124F/T190F/C194F,13.9 ± 3.41 µM
same,Ki,ShHTL7 L124F/T190F/C194F,11.8 ± 3.43 µM
same,ligand-dependent ShMAX2-ShD14 interaction,ShMAX2 and ShD14,direct interaction was detected between ShMAX2 and ShD14 in a rac-GR24-dependent manner
same,hydrolytic activity of ShD14 toward SL,ShD14 [4],able to hydrolyze
same,ligand-dependent ShMAX2-ShHTL4 interaction,ShMAX2 and ShHTL4,able to interact with ShHTL4 of the divergent clade in the presence of rac-GR24
same,hydrolytic activity of ShHTL7 toward SL,ShHTL7 [5],able to hydrolyze
same,ligand-induced ShHTL7-ShMAX2 interaction,[9],triggered the interaction of ShHTL7 with ShMAX2
same,hydrolytic activity of ShHTL1 toward SL,ShHTL1 [6],no hydrolytic activity
same,binding of rac-GR24 to ShHTL1,ShHTL1 [10],no detectable binding
same,hydrolysis of rac-GR24 by AtHTL,AtHTL,able to hydrolyze rac-GR24 to some extent
same,IC50,ShHTL7 [11],170 ± 10 nM
same,Ki,ShHTL7 [11],70 ± 10 nM
same,Kd,AtD14,300 nM
same,hydrolytic activity of ShHTL4 toward SL,ShHTL4,able to hydrolyze
same,hydrolytic activity of ShHTL3 toward SL,ShHTL3 [12],no hydrolytic activity
same,binding of rac-GR24 to ShHTL3,ShHTL3 [13],can bind to KAR1 but not rac-GR24
CC1=C[C@H](O/C=C2/C(=O)O[C@@H]3c4ccccc4C[C@H]23)OC1=O [GR24^ent−5DS],hydrolysis of GR24^ent−5DS by AtHTL,AtHTL,able to hydrolyze GR24^ent−5DS

# Source: PMC6158167 (Nature Communications, 2018)
